Source: patent publication US20260217656A1, “Compounds Affecting KRAS” (UNIVERSITAT DE BARCELONA, priority 2022, published 2026)

Assays:
[1] = system: ERK and AKT in DLD-1-KO cells; assay: Western blot of AKT and ERK activation in serum-starved DLD-1-KO cells; format: cell-based, human; conditions: DLD-1-KO serum-starved cells, 100 μM
From the text: DLD-1 (KRASWT/G13D) (clone V15, #HD PAR-086) colorectal adenocarcinoma cell line and DLD-1 knockout of mutant KRAS allele, DLD-1 KO (KRASWT/−) (clone DWT7, #HD105-002), were obtained from Horizon Discovery Ltd. (Cambridge, UK). hTERT-RPE (KRASWT/WT) immortalized retinal pigment epithelial human cell line was obtained from the […] (ATCC). DLD-1 KO cells stably expressing HA-KRAS G12V were previously generated in our laboratory (Cabot et al., 2021). All cells were grown in DMEM-HAM s F12 (1:1) supplemented with 10% foetal bovine serum (Biological Industries, Israel), penicillin, streptomycin, and nonessential amino acids. […]
For analysis of RAS signalling, cells were lysed in a buffer containing 67 mM Tris-HCl pH 6.8 and 2% SDS and then the samples were heated at 97° C. for 15 minutes. Protein concentration of the lysates was assessed using the Lowry method. […]
Comparison of Ras signaling between DLD-1, DLD-1-KO and hTERT-RPE cells treated with P14B since important differences were observed between the viability of cells treated with P14B depending on their expression or lack of expression of oncogenic KRAS, we further studied whether these discrepancies were reflected also in KRAS downstream signaling. Serum-starved cells (0.1% FCS) were treated with P14B (100 μM) and activation of AKT and ERK was evaluated by WB. […]

[2] = target: T1, GST-KRAS (1-166), GTP loaded (Homo sapiens, UniProt P01116, G12V); assay: Surface plasmon resonance analysis; format: binding; conditions: GTP-loaded GST-KRAS (aminoacids 1 to 166) immobilized; read-out: affinity constant (KD)
T1 construct: GST-KRAS (1-166) and GST were covalently immobilized; made in house; host or cells: Escherichia coli BCI21 (so in the source)
Procedure: Surface Plasmon Resonance Analysis was performed by using BIAcore T200 equipment. GST-KRAS (1-166) and GST were covalently immobilized on two of the channels of CM5 Series S Chip following manufacturers instruction. KRAS was loaded with GTP by injecting 1 mM of GTP 10 μl/min for 30 min in exchange buffer (20 mM Tris-HCl pH 7.5; 50 mM NaCl, 5% glycerol, 0.1% Triton X-100, 1 mM DTT) with 10 mM EDTA at 30° C. and loading was blocked by injecting exchange buffer with 15 mM MgCl2 at 10 μl/min for 5 min. P14B was injected at 12.5 μM, 25 μM, 38.5 μM, 50 μM, 75 μM, 100 μM and 150 μM in running buffer (150 mM NaCl, 50 mM Tris-HCl pH7.5, 2 mM MgCl2, 0.1% Triton and 5% DMSO […] Dissociation was allowed for 10 min in the same buffer. All runs were done by duplicate. Nonspecific binding was subtracted by using two linked channels (GST-KRAS minus GST). Diverse solutions (from 3% to 8%) with DMSO were also prepared to analyse its effect in the RUs, and a solvent correction was performed to reduce the error associated with the injection of the sample. […]
To confirm the direct interaction between KRAS and P14B, surface plasmon resonance analysis was performed. […] Given that P14B is able to bind to oncogenic KRAS (FIG. 4) most likely via the same surface that KRAS uses to interact with CaM, we analyzed the possibility that P14B can displace CaM from oncogenic KRAS. […]

[3] = target: T2, GST-KRAS-G12V binding to CaM (Homo sapiens, UniProt P01116, G12V); assay: CaM-sepharose pulldown competition assay; conditions: increasing concentrations of P14B
T2 construct: recombinant GTP-loaded GST-KRAS-G12V (1-166) with CaM-sepharose beads; made in house; host or cells: Escherichia coli BCI21 (so in the source)
Procedure: […] of recombinant GST-KRAS (1-166) (GTP loaded) and 12.5 I of CaM-sepharose beads (Cytiva; Merck) (previously washed with pull-down buffer (PDB) containing 50 mM Tris-HCl, pH 7.5, 150 mM NaCl, 0.1% (v/v) Triton X-100) were incubated in the presence of 1 mM CaCl2 or 5 mM EGTA (in a total volume of 100 I with PDB) for 60 minutes at room temperature. The unbound fraction was collected by centrifugation, and the bound fraction was washed four times with PDB with either CaCl2 or EGTA. The entire bound fraction was analysed by WB.
GST-KRAS (1-166) fusion protein was expressed in Escherichia coli BCI21 and then purified and loaded with the specific nucleotide as previously described (Villalonga et al., 2001).
To confirm the direct interaction between KRAS and P14B, surface plasmon resonance analysis was performed. Purified GST-KRAS (aminoacids 1 to 166) was immobilized and then GTP loaded. […] Given that P14B is able to bind to oncogenic KRAS (FIG. 4) most likely via the same surface that KRAS uses to interact with CaM, we analyzed the possibility that P14B can displace CaM from oncogenic KRAS. To this end, we performed an in vitro competence assay that consisted of pulling-down recombinant GTP-loaded GST-KRAS-G12V (1-166) with CaM-sepharose beads followed by incubation with increasing concentrations of P14B.

`COc1ccc(C(c2c(C)n[nH]c2O)c2c(C)n[nH]c2O)cc1Oc1ccc([N+](=O)[O-])cc1` [Example P14B] was tested. Which “AKT and ERK activation” value [1] did it give?
The value was “AKT and ERK activation by P14B was also observed”.

What about the “levels of ERK phosphorylation compared with 10% FBS treatment” value [1] of the same compound?
The value was “significantly lower”.

And the Kd [2]?
Its Kd is 32.8 µM.

What about the “Ca+2-dependent GST-KRAS-G12V binding to CaM” value [3] of the same compound?
Its value is “reduced”.
